Test results taken from article PMC7366380, “Discovery of a Potent and Selective Covalent Inhibitor and Activity-Based Probe for the Deubiquitylating Enzyme UCHL1, with Antifibrotic Activity” (Journal of the American Chemical Society, 2020).
Values joined by “and” are separate entries in the source; they are usually repeats but may differ in a detail not shown here. Equal values may be shown once.

Tests used:
[1] = target: DUBs and other proteins in HEK293 cells (Homo sapiens, UniProt Q93009); assay: Quantitative chemical proteomic profiling of ABP 2 in HEK293 cells: other DUBs and proteins across the proteome; details: USP7, listed as ABP 2
DUBs and other proteins in HEK293 cells, sequence (Q93009 whole entry): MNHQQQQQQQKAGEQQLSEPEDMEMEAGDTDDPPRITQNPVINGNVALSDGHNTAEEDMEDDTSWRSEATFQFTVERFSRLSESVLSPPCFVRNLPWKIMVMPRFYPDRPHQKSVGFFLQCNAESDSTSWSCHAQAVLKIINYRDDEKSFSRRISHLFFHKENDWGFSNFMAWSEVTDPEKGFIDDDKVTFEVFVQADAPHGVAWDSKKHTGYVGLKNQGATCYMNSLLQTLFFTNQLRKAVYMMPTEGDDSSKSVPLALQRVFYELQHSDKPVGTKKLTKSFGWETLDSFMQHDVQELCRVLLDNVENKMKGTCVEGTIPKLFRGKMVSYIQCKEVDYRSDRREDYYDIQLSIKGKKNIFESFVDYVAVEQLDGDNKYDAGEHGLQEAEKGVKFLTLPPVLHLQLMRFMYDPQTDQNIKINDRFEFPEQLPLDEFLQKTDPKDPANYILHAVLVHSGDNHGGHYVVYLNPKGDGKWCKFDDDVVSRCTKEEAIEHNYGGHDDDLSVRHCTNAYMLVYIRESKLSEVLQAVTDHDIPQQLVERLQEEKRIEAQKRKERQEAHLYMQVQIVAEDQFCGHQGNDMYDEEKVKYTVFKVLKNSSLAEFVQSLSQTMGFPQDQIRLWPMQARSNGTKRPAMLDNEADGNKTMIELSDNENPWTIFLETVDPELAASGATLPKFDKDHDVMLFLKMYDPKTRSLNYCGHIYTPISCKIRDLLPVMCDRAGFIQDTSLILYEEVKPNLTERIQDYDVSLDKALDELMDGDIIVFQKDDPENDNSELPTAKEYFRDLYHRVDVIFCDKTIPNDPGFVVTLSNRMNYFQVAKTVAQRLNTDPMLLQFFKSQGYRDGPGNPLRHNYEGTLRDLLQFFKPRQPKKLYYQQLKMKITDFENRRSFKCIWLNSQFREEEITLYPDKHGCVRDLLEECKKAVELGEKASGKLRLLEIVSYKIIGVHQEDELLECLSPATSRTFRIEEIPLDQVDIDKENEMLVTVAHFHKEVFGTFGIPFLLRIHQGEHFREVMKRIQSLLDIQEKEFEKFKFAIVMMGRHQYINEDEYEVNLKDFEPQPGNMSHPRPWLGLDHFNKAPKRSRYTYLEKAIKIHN

UCHL1 = target: T1, UCHL1 (Homo sapiens, UniProt P09936); assay: ABP 2 labeling in HEK293 cells, AzTB ligation, in-gel fluorescence; details: HEK293, time course
T1 sequence (P09936 1-223): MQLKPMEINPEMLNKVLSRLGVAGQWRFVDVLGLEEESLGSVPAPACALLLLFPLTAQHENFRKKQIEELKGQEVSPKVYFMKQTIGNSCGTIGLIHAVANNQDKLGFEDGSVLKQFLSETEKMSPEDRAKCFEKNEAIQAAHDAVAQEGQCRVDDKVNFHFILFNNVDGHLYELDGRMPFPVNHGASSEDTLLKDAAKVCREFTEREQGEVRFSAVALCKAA

EIF3F = EIF3F (Homo sapiens, UniProt O00303); assay: Quantitative chemical proteomic profiling of ABP 2 in HEK293 cells: EIF3F; details: for Log2 reporter intensity values (Log2FC, DMSO substract): EIF3F, listed as ABP 2
[2] = 200 nM, 180 min, replicates A,C

## C#Cc1cnc2[nH]cc(-c3cccc4c3CCN4C(=O)[C@@H]3CCCN3C#N)c2c1 [Compound 2]
[1]; 2 nM, 60 min, replicates A-C
  Log2 reporter intensity values (Log2FC, DMSO substract): 0.06357 and 0.017 and -0.3747
[1]; 20 nM, 10 min, replicates B,C
  Log2 reporter intensity values (Log2FC, DMSO substract): -0.07969 and -0.2354
[1]; 20 nM, 60 min, replicates A-C
  Log2 reporter intensity values (Log2FC, DMSO substract): 0.02327 and -0.09058 and -0.2812
[1]; 20 nM, 180 min, replicates A-C
  Log2 reporter intensity values (Log2FC, DMSO substract): -0.1814 and -0.1595 and -0.1999
[1]; 200 nM, 10 min, replicates B,C
  Log2 reporter intensity values (Log2FC, DMSO substract): 0.1137
[1]; 200 nM, 60 min, replicates A-C
  Log2 reporter intensity values (Log2FC, DMSO substract): -0.04347 and 0.1524 and 0.1409
[1]; [2]
  Log2 reporter intensity values (Log2FC, DMSO substract): -0.01106 and 0.3029
UCHL1
  time to maximal labeling: ≤ 60 min
EIF3F; 2 nM, 60 min, replicates A-C
  Log2 reporter intensity values (Log2FC, DMSO substract): 0.2006 and 0.08743 and 0.3363
EIF3F; 20 nM, 10 min, replicates B,C
  Log2 reporter intensity values (Log2FC, DMSO substract): 0.2292 and 0.2562
EIF3F; 20 nM, 60 min, replicates A-C
  Log2 reporter intensity values (Log2FC, DMSO substract): 0.2037 and 0.07421 and -0.06904
EIF3F; 20 nM, 180 min, replicates A-C
  Log2 reporter intensity values (Log2FC, DMSO substract): 0.329 and 0.1016 and 0.09094
EIF3F; 200 nM, 10 min, replicates B,C
  Log2 reporter intensity values (Log2FC, DMSO substract): 0.1208 and 0.2271
EIF3F; 200 nM, 60 min, replicates A-C
  Log2 reporter intensity values (Log2FC, DMSO substract): 0.222 and -0.03463 and 0.3157
EIF3F; [2]
  Log2 reporter intensity values (Log2FC, DMSO substract): 0.2814 and 0.1468
EIF3F; HEK293, 20 nM vs DMSO, 1 h, enrichment, TMT, n=3
  Log2 t-test Difference, EIF3F, 20 nM: 0.06962
EIF3F; HEK293, 200 nM vs DMSO, 1 h, enrichment, TMT, n=3
  Log2 t-test Difference, EIF3F, 200 nM: 0.1677
